The IC50 is the concentration that inhibits the measured activity by half.

Test [1] has as its system A3/KAW. The test is described as follows: DLBCL cell line sensitivity to IKE (CellTiter-Glo viability, 24 h). Particulars: read-out: cell line sensitivity to IKE (IC50 class). It is filed as cell-based. How it is done: (§1) DLBCL cells were plated at 10,000 cells per well in white 384-well plates (32 μL per well) in technical duplicates and incubated overnight. The cells were then treated with 8 μL medium containing a two-fold dilution series of vehicle (DMSO), IKE (starting from 100 μM) with or without Fer-1 (starting from 200 μM). After 24 h incubation, 40 μL of 50% CellTiter-Glo (Promega) 50% cell culture medium was added to each well and incubated at room temperature with shaking for 15 min. Luminescence was measured using a Victor X5 plate reader (PerkinElmer). All cell viability data were normalized to the DMSO vehicle condition. Experiments were performed three independent times with different passages for each cell line.
In general terms: In ATP-based viability assays light output follows the ATP content of the culture.

For test [2], the system named is DOHH 2. Described as above. It is filed as cell-based. Particulars: Homo sapiens; DOHH 2, 24 hours; read-out: cell line sensitivity to IKE (IC50 class). As for the experimental part: as §1
For test [3], the system named is HBL 1. The test is described as above. It is filed as cell-based. The conditions noted are these: HBL 1, 24 hours. As for the experimental part:
as §1

Test [4] has as its system KARPAS 422. The test is described as above. It is filed as cell-based. Particulars: KARPAS 422, 24 hours. As for the experimental part:
as §1

In test [5] the test system is LY 7. The description is as above. In kind it is cell-based. The conditions noted are these: LY7; LY 7, 24 hours; read-out: cell line sensitivity to IKE (IC50 class). How it is done: as §1
The test system of test [6] is LY 8. The test is described as above. The conditions noted are these: LY 8, 24 hours; read-out: cell line sensitivity to IKE (IC50 class). It is filed as cell-based. As for the experimental part: as §1
Test [7] deals with RIVA. Described as above. In kind it is cell-based. How it is done:
as §1

In test [8] the test system is SUDHL 10. The description is as above. It is filed as cell-based. Particulars: Homo sapiens, SU-DHL10; SUDHL 10, 24 hours; read-out: cell line sensitivity to IKE (IC50 class). As for the experimental part: as §1
In test [9] the test system is SUDHL 16. The test is described as above. In kind it is cell-based. Particulars: Homo sapiens, SU-DHL-16; SUDHL 16, 24 hours; read-out: cell line sensitivity to IKE (IC50 class). As for the experimental part: as §1
The test system of test [10] is SUDHL 2. The description is as above. In kind it is cell-based. The conditions noted are these: Homo sapiens, SU-DHL-2; SUDHL 2, 24 hours; read-out: cell line sensitivity to IKE (IC50 class). As for the experimental part:
as §1

In test [11] the test system is SUDHL 5. The test is described as above. In kind it is cell-based. Particulars: Homo sapiens, SU-DHL-5; SUDHL 5, 24 hours; read-out: cell line sensitivity to IKE (IC50 class). As for the experimental part:
as §1

Test [12] relates to SUDHL 6. The test is described as above. In kind it is cell-based. Particulars: Homo sapiens, SU-DHL-6; SUDHL 6, 24 hours; read-out: cell line sensitivity to IKE (IC50 class). How it is done:
as §1

Test [13] has as its system SUDHL 7. Described as above. Particulars: SUDHL 7, 24 hours; read-out: cell line sensitivity to IKE (IC50 class). In kind it is cell-based. As for the experimental part: as §1
Test [14] deals with SUDHL 8. The test is described as above. In kind it is cell-based. The conditions noted are these: SUDHL 8, 24 hours. How it is done: as §1
In test [15] the test system is SUDHL 9. Described as above. The conditions noted are these: SUDHL 9, 24 hours. In kind it is cell-based. As for the experimental part: as §1
In test [16] the test system is U2932. The description is as above. In kind it is cell-based. Particulars: Homo sapiens; U2932, 24 hours; read-out: cell line sensitivity to IKE (IC50 class). How it is done:
as §1

The test system of test [17] is U937. The test is described as above. The conditions noted are these: Homo sapiens, U-937; U937, 24 hours; read-out: cell line sensitivity to IKE (IC50 class). In kind it is cell-based. As for the experimental part: as §1
Test [18] has as its system WSU-NHL. The test is described as above. In kind it is cell-based. As for the experimental part: as §1
The subject of test [19] is SUDHL6 xenograft tumor tissue. The experiment in a line: Reduced glutathione measurement in mouse tumor tissue after one IKE dose. It is filed as in vivo, NCG mice. Particulars: single dose IKE 50 mg/kg, starting at 4 hours.
The subject of test [20] is SUDHL6 xenograft tumor tissue. The test is described as follows: Western blot of caspase-3 in tumor tissue from efficacy study. In kind it is in vivo, NCG mice. Particulars: treatment for 14 days. As for the experimental part: 10-25 mg tumor tissue was placed into a 1.5 mL Eppendorf microfuge tube, and the sample was placed on dry ice until use. 20 μL/mg ice cold RIPA buffer with cocktail protease inhibitor (Roche) was added. The tumor tissue was homogenized at speed 5 for 30 sec using Bead Ruptor 4. The sample was centrifuged at 4° C. at 1,600×g for 10 min. The sample was kept on ice and the supernatant used for analysis. Caspase-3 antibody which could recognize both full-length caspase-3 and cleaved caspase-3 was used. α-Tubulin antibody was used as the reference.
For orientation: A western blot detects proteins with antibodies after separation by electrophoresis.

`CC(C)Oc1ccc(C(=O)Cn2ccnc2)cc1-n1c(CN2CCN(C(=O)COc3ccc(Cl)cc3)CC2)nc2ccccc2c1=O` [IKE, Imidazole ketone erastin]: the 50% inhibitory concentration (IC50) in test [1] is over 10 µM; in test [2] it was under 0.1 µM; in test [5] it was over 10 µM; in [6], under 0.1 µM; in test [8], under 0.1 µM; in [9] it was under 0.1 µM. For the same compound, the IC50 in test [10] was under 0.1 µM; in test [11], under 0.1 µM; in [12], under 0.1 µM; in test [13], over 10 µM; in [16] it was over 10 µM; in test [17], over 10 µM. Also, the “cell line sensitivity to IKE (IC50 class)” value in [3], in test [4], in [7], in [14], in test [15] and in test [18] was “moderately resistant” throughout. Further, the “GSH depletion in tumor tissue” value in [19] is “over 50%”. The “cleaved-caspase 3 in tumor tissue (western blot)” value in test [20] is given as “no cleaved-caspase 3 increase”.

Source of the values: patent US20210267978A1, “NANOPARTICLE FORMULATIONS OF IKE AND METHODS OF USE THEREOF” (The Trustees of Columbia University in the City of New York, priority 2018, published 2021).
